# In patent US20240285770A1, “PRECIPITATION SUPPRESSING AGENT” (Nippon Shinyaku Co., Ltd., priority 2021, published 2024):
# Experiments:
# [1] = Precipitation suppression with sucrose: absorbance at 620 nm of antisense oligomer in KCl/NaCl solution assumed to be in urine; format: physicochemical
# Method: The presence or absence of the precipitation suppressing effects can be determined by adding the antisense oligomer and the precipitation suppressing agent in a solvent simulating urine and examining as described in Examples whether or not the precipitation suppressing agent reduces an increase in absorbance caused by precipitation of the antisense oligomer. For example, after the antisense oligomer and the precipitation suppressing agent are added to the solvent (e.g., 5 minutes later, 10 minutes later, 15 minutes later, 20 minutes later, 25 minutes later, 30 minutes later, 40 minutes later, 50 minutes later, 60 minutes later, 70 minutes later, 80 minutes later, or 90 minutes later), the absorbance can be determined under the conditions of 37° C. At this time, compared to a case of adding no precipitation suppressing agent, it can be determined to be effective in suppressing precipitation when a time until the precipitation is observed (until the increased absorbance at 620 nm is observed) or the absorbance at 620 nm are reduced, for example, by 5% or more, 10% or more, 20% or more, 30% or more, 40% or more, or 50% or more in the case of adding the precipitation suppressing agent. […] The absorbance at 620 nm of the solution thus mixed was measured using a plate reader, Infinite F200 Pro (manufactured by Tecan Group Ltd.) under heating conditions of 37° C. […]
# kidney [2] = format: in vivo, C57BL/6J male mice; settings: sucrose 200 mg/mL co-administered with PMO No. 11 130 mg/mL, 20 mL/kg tail vein, mice
# Method: The antisense oligomer of PMO No. 11 was dissolved in physiological saline to prepare a control dosing solution comprising the antisense oligomer at the concentration shown in Table 14 and comprising no sucrose. Next, the antisense oligomer of PMO No. 11 and sucrose were dissolved in physiological saline to prepare dosing solutions comprising the antisense oligomer and sucrose at the concentrations shown in Table 14. The obtained dosing solutions were administered into the tail vein of 6-week-old C57BL/6J male mice (N=5) at 20 mL/kg. Next day, the mice were subjected to autopsy, and formalin-fixed paraffin-embedded samples of the respective kidneys were prepared. Sections obtained by slicing the samples were subjected to hematoxylin-eosin staining and a histopathological test of the sections was performed. Compared to the mice to which the control dosing solution comprising no sucrose has been administered, it was determined that the precipitation was suppressed in a case where there was improvement in the findings on the histopathological test of the kidney of the mice to which the dosing solution comprising sucrose has been administered.
# kidney [3] = format: in vivo, C57BL/6J male mice; settings: sucrose 20 to 100 mg/mL co-administered with PMO No. 8 50 mg/mL, 10 mL/kg tail vein, mice
# Method: The antisense oligomer of PMO No. 8 was dissolved in water for injection comprising 0.9% sodium chloride, and a solution obtained by dissolving sucrose (manufactured by FUJIFILM Wako Pure Chemical Corporation) with physiological saline was added thereto to prepare a dosing solution comprising each of the antisense oligomer and sucrose at the concentrations shown in Tables 12 and 13. The obtained dosing solutions were administered into the tail vein of 6-week-old C57BL/6J male mice (N=3) at the amount of dosing solution shown in Table 12 (10 mL/kg). Next day, some mice to which the antisense oligomer of PMO No. 8 had been administered were subjected to autopsy, and formalin-fixed paraffin-embedded samples of the respective kidneys were prepared. Sections obtained by slicing the samples were subjected to hematoxylin-eosin staining and a histopathological test of the sections was performed.
# [4] = Precipitation suppression with trehalose: absorbance at 620 nm of antisense oligomer in KCl/NaCl solution assumed to be in urine; format: physicochemical; settings: Example 7: trehalose 45 to 180 mg/mL with PMO Nos. 1, 2, 7, and 8, 37° C., Tables 18 to 21
# Method: The presence or absence of the precipitation suppressing effects can be determined by adding the antisense oligomer and the precipitation suppressing agent in a solvent simulating urine and examining as described in Examples whether or not the precipitation suppressing agent reduces an increase in absorbance caused by precipitation of the antisense oligomer. For example, after the antisense oligomer and the precipitation suppressing agent are added to the solvent (e.g., 5 minutes later, 10 minutes later, 15 minutes later, 20 minutes later, 25 minutes later, 30 minutes later, 40 minutes later, 50 minutes later, 60 minutes later, 70 minutes later, 80 minutes later, or 90 minutes later), the absorbance can be determined under the conditions of 37° C. At this time, compared to a case of adding no precipitation suppressing agent, it can be determined to be effective in suppressing precipitation when a time until the precipitation is observed (until the increased absorbance at 620 nm is observed) or the absorbance at 620 nm are reduced, for example, by 5% or more, 10% or more, 20% or more, 30% or more, 40% or more, or 50% or more in the case of adding the precipitation suppressing agent. […]
Compound,"precipitation suppressing effect on antisense oligomers ([1]; Example 3: sucrose 45 to 270 mg/mL with PMO Nos. 8, 9, 10, 11, KCl and NaCl, 37° C., Tables 4 to 11)","precipitation suppressing effect on antisense oligomers ([1]; Example 6: sucrose 45 to 135 mg/mL with PMO Nos. 1, 2, and 7, 37° C., Tables 15 to 17)",precipitation suppression in kidney (improvement in findings on histopathological test) (kidney [2]),"precipitation suppressing effect in kidney (amount of precipitates, basophilic substances in lumens of renal tubules) (kidney [3])",precipitation suppressing effect on antisense oligomers [4]
OC[C@H]1O[C@@](CO)(O[C@H]2O[C@H](CO)[C@@H](O)[C@H](O)[C@H]2O)[C@@H](O)[C@@H]1O [sucrose],suppress the precipitation of antisense oligomers,suppress the precipitation of antisense oligomers,confirmed to suppress precipitation,amount of precipitates decreased according to the concentrations of sucrose,–
OC[C@H]1O[C@H](O[C@H]2O[C@H](CO)[C@@H](O)[C@H](O)[C@H]2O)[C@H](O)[C@@H](O)[C@@H]1O [trehalose],–,–,–,–,suppress the precipitation of antisense oligomers
